Results from patent publication US20070212745A1, “BETA-GLUCOSIDASE AND A PROCESS FOR EXTRACTION THEREOF” (priority 2006, published 2007).

Test system: β glucosidase
Experiment: Effect of FeSO4 on β glucosidase
Type: biochemical, Rauvolfia serpentina
Conditions: for Fold activity enhanced: relative to 0 mM
Protocol: Rauvolfia serpentina (Sarpgandha) plants were raised from root cuttings at the glass house of Central Institute of Medicinal and Aromatic Plants (CIMAP), Lucknow by following standard agronomic practices. The extraction of the glucosidase enzyme was optimized with respect to buffer, pH, protecting and stabilizing agents to obtain maximum extractable activity. All the operations of enzyme isolation were carried out at 0-4° C. unless specified otherwise. The extraction medium of present invention also relates to a process for the extraction of a B glucosidase from plant tissues from a natural source and useful for the cleaving of β-1,4 linkage of PNPG, said process comprising: homogenizing the plant tissue in a cold extraction medium (1 g tissue/3 ml). Flowers of Rauvolfia serpentina were homogenized in 100 mM K-phosphate buffer (pH 6.0) including 10 mM β-Mercapto ethanol and 2 mM E.D.T.A. (Ethylene Diamine Tetra Acetic Acid). The tissue homogenate was centrifuged at 12,000×g for 30 min at 4° C. and the clear supernatant was collected. Assays specific for the determination of optimum pH, optimum temperature, stability and activation were performed.
Enzyme activity was assayed using the modified method described by Stevens et al, assay mixture in a total volume of 200 μL contained 2.5 mM p-nitrophenyl β-D-glucopyranoside in 100 mM Citrate-Phosphate buffer (pH 5) at defined temperatures with 10 μL of enzyme preparation. After 15 min of incubation time the reaction was stopped by adding 800 μL of 1M Sodium carbonate and the absorbance of p-nitrophenol (the product of reaction) was measured at wavelength 405 nm.
Calculation of Units: The enzyme activity was expressed in terms of μmole of p-nitrophenol formed per minute using the molar extinction coefficient (E) 18,350 m^−1 cm^−1 [Estibalitz, O., Richard, O. A., and Ioannis, Z., 2001. The role of β-glucosidase in biosynthesis of 2,5-dimethyl-4-hydroxy-3 (2H)-furanone in strawberry. Flavour and Fragrance J., 16: 81-84.]

β glucosidase Activity (I.U.) (FeSO4 Conc. 1 mM): 71.93 I.U.
Fold activity enhanced (FeSO4 Conc. 1 mM): 1.74 Fold
β glucosidase Activity (I.U.) (FeSO4 Conc. 5 mM): 335.69 I.U.
Fold activity enhanced (FeSO4 Conc. 5 mM): 8.11 Fold
β glucosidase Activity (I.U.) (FeSO4 Conc. 10 mM): 627.79 I.U.
Fold activity enhanced (FeSO4 Conc. 10 mM): 15.16 Fold
effect of FeSO4 on enzyme activity (in words): activation
Structure (SMILES): O=S(=O)([O-])[O-].[Fe+2] [FeSO4]
